Measured values taken from patent US11085056B2, “Transfection complexes and methods of using the same” (MOLECULAR TRANSFER, INC., priority 2015, dated 2021).

Assays:
HeLa Cells [1] = test: Transfection of HeLa cells with DOTMA/DOPE/peptide and eGFP plasmid, fluorescent plate reader; type: cell-based; conditions: DOTMA/DOPE 1:1 plus peptide with RRRRRRRRRRRR (SEQ ID NO: 109) at n terminus; EF1Alpha eGFP plasmid; 0.01 mL complex; 42 hours
Description: (§1) Cells were plated to so that on the day of transfection the cells were 60-70% confluent in 96 well tissue culture plates. A DOMTA/DOPE Lipid solution (1:1 molar ratio) at 2 mg/mL in water were mixed with an equal volume of surface ligand peptides that had the nucleic acid binding moiety RRRRRRRRRRRR (SEQ ID NO: 109) covalently linked to the n terminus of each peptide during peptide synthesis. Peptides were at 2 mg/mL in water. The DOTMA/DOPE and the surface ligand peptide solution the transfection reagent was diluted 1 to 1 (v/v) in water. DOMTA/DOPE/PEPTIDE solutions were added to 0.1 mL of a plasmid DNA solution (EF1Alpha eGFP plasmid) at 5 μg/mL in OptiMEM. Lipofectamine 2000 was obtained from Life Technologies.
(§2) All solutions were at room temperature. A volume of 0.2 mL of a 5 μg/mL solution of DNA was aliquoted into each well of a non-tissue cultured treated plate. 4.0 μL of transfection reagents were added to DNA solutions respectively. The transfection reagent and DNA solution was mixed by pipetting up and down twice. Transfection complexes were formed for 10 minutes. After 10 minutes, 0.01 or 0.02 mL of the transfection complex was added to cells. HuVEC, HeLa, human adult keratinocytes, human primary adult fibroblast, and rat cortical neurons all respectively received 0.01 mL of the tramsfectopm complex. Human skeletal muscle cells, mouse C2C12 cells, Jurkat, and THP-1 cells received 0.02 mL of the transfection complex. Cells were incubated for 42 hours at 37° C. at 5% CO2. Plates were read on a fluorescent plate reader. Cells were also examined visually under a microscope to assess the extent of transfection (in terms of the percent of cells transfected) with a fluorescent microscope. Other modes of analysis, for example quantification with B-galactosidase or luciferase reports plasmids can also be used. […] Surface ligand that caused increase expression of GFP over the lipid DOTMA with no surface ligand were considered to enhance transfection or had higher % cells transfected were considered to enhance transfection. Peptides that gave greater than 2 fold enhancement are noted in bold and could be further optimized by adding different transfection enhancers or could be used with different cationic lipids or polymers.

HuVec Cells = test: Transfection of HuVec cells with DOTMA/DOPE/peptide and eGFP plasmid, fluorescent plate reader; type: cell-based; conditions: DOTMA/DOPE 1:1 plus peptide with RRRRRRRRRRRR (SEQ ID NO: 109) at n terminus; EF1Alpha eGFP plasmid; 0.01 mL complex; 42 hours
Description: as §1, §2

NL-1 iPS Cells = test: Transfection of NL-1 iPS cells with DOTMA/DOPE/peptide and eGFP plasmid, fluorescent plate reader; type: cell-based; conditions: DOTMA/DOPE 1:1 plus peptide with RRRRRRRRRRRR (SEQ ID NO: 109) at n terminus; EF1Alpha eGFP plasmid; 42 hours
Description: as §1, §2

C2C12 Cells = test: Transfection of C2C12 cells with DOTMA/DOPE/peptide and eGFP plasmid, fluorescent plate reader; type: cell-based, mouse; conditions: DOTMA/DOPE 1:1 plus peptide with RRRRRRRRRRRR (SEQ ID NO: 109) at n terminus; EF1Alpha eGFP plasmid; 0.02 mL complex; 42 hours
Description: as §1, §2

Human Fibroblast Cells = test: Transfection of human fibroblast cells with DOTMA/DOPE/peptide and eGFP plasmid, fluorescent plate reader; type: cell-based; conditions: DOTMA/DOPE 1:1 plus peptide with RRRRRRRRRRRR (SEQ ID NO: 109) at n terminus; EF1Alpha eGFP plasmid; 0.01 mL complex; 42 hours
Description: as §1, §2

Jurkat Cells = test: Transfection of Jurkat cells with DOTMA/DOPE/peptide and eGFP plasmid, fluorescent plate reader; type: cell-based; conditions: DOTMA/DOPE 1:1 plus peptide with RRRRRRRRRRRR (SEQ ID NO: 109) at n terminus; EF1Alpha eGFP plasmid; 0.02 mL complex; 42 hours
Description: as §1, §2

HeLa Cells [2] = test: Transfection of HeLa cells with DOTMA/SEQ ID NO: 72/peptide compared with Lipofectamine 2000; type: cell-based; conditions: fusogenic peptide 0.1 mg/mL
Description: as §1, §2
The fusogenic peptide was added to the DOMTA/peptide formulation to achieve a final concentration of 0.1 mg/mL to see if transfection reagents were further enhanced by the addition of a fusogenic peptide and could provide higher transfection efficiency into HeLa cells and expression than the commercially available Lipofectamine 2000.

some examined cell types = test: Transfection expression and % cells transfected over the no peptide control; type: cell-based; conditions: on some examined cell types
Description: as §1, §2

[3] = 0.1 μL of DOTMA/SEQ ID NO: 72/Peptide in well of a 96 well plate
[4] = 0.2 μL of DOTMA/SEQ ID NO: 72/Peptide in well of a 96 well plate
[5] = 0.3 μL of DOTMA/SEQ ID NO: 72/Peptide in well of a 96 well plate
[6] = 0.4 μL of DOTMA/SEQ ID NO: 72/Peptide in well of a 96 well plate

Row | Substance | RF (Relative Fluorescence) of Transfection of HeLa Cells (HeLa Cells [1]) | RF (Relative Fluorescence) of Transfection of HuVec Cells (HuVec Cells) | RF (Relative Fluorescence) of Transfection of NL-1 iPS Cells (NL-1 iPS Cells) | RF (Relative Fluorescence) of Transfection of C2C12 Cells (C2C12 Cells) | RF (Relative Fluorescence) of Transfection of Human Fibroblast Cells (Human Fibroblast Cells) | RF (Relative Fluorescence) of Transfection of Jurkat Cells (Jurkat Cells) | RF (Relative Fluorescence), DOTMA/SEQ ID NO: 72/Peptide, HeLa Cells (HeLa Cells [2]; [3]) | RF (Relative Fluorescence), DOTMA/SEQ ID NO: 72/Peptide, HeLa Cells (HeLa Cells [2]; [4]) | RF (Relative Fluorescence), DOTMA/SEQ ID NO: 72/Peptide, HeLa Cells (HeLa Cells [2]; [5]) | RF (Relative Fluorescence), DOTMA/SEQ ID NO: 72/Peptide, HeLa Cells (HeLa Cells [2]; [6]) | transfection expression and the % cells transfected over the no peptide control (some examined cell types)
1 | 268 (GGFLKYTVSYDI; Peptidic transfection agent) [compound 268] | 25885 | 5403 | 15697 | 2568 | 4568 | 3236 | 10162 | 9934 | 10792 | 9519 | increased
2 | 323 (HQQDLGTAGSCLRKFSTMFLF; Peptidic transfection agent) [compound 323] | 14067 | 12815 | 21694 | 7698 | 4826 | 2900 | 15537 | 16620 | 10839 | 9244 | increased
3 | 326 (RLVSYSGVLFFLK; Peptidic transfection agent) [compound 326] | 18946 | 4932 | 9239 | 8553 | 3070 | 3018 | 6887 | 9487 | 10330 | 9227 | increased
4 | 328 (NWRHISYITRFG; Peptidic transfection agent) [compound 328] | 32528 | 3614 | 8611 | 5507 | 5641 | 4770 | 11037 | 12229 | 10801 | 10951 | increased
5 | 336 (GEFYFDLRLKGDK; Peptidic transfection agent) [compound 336] | 25262 | 5366 | 14875 | 9647 | 10449 | 4813 | 14442 | 16702 | 13434 | 11334 | increased
6 | 341 (LRAHAVDVNG; Peptidic transfection agent) [compound 341] | 4108 | 15906 | 20446 | 2141 | 2284 | 18042 | 6406 | 7469 | 8020 | 7546 | increased
7 | 342 (TAGSCLRKFSTM; Peptidic transfection agent) [compound 342] | 33666 | 12804 | 11493 | 9496 | 9525 | 12825 | 41299 | 36040 | 28841 | 18351 | increased
8 | 343 (LFSHAVSSNG; Peptidic transfection agent) [compound 343] | 5910 | 16239 | 21726 | 3218 | 4590 | 23499 | 6961 | 8626 | 8577 | 8160 | increased
9 | 344 (KGHRGF; Peptidic transfection agent) [compound 344] | 14415 | 11867 | 10895 | 1678 | 12704 | 10160 | 13315 | 16387 | 12564 | 12511 | increased
10 | 347 (DLGTAGSCLRKFSTM; Peptidic transfection agent) [compound 347] | 22527 | 20728 | 21865 | 4457 | 9255 | 17720 | 23188 | 21493 | 16814 | 14140 | increased
